Converted amounts (≈) assume the structure as drawn.
What was measured:
[1] = Partition coefficient (logP); format: physicochemical; conditions: octanol/water
Escherichia coli [2] = assay: Minimum inhibitory activity against Escherichia coli GC 4559; format: functional
[3] = Minimum inhibitory activity against Streptococcus pneumoniae GC1894 (PRSP); format: functional
Staphylococcus aureus [4] = assay: Minimum inhibitory activity against Staphylococcus aureus GC 2216 (ATCC); format: functional
Escherichia coli [5] = assay: Minimum inhibitory activity against Escherichia coli GC 4560; format: functional
[6] = target: T1, UDP-N-acetylenolpyruvoylglucosamine reductase (Staphylococcus aureus, UniProt P61431); assay: In vitro inhibitory activity against Staphylococcus aureus UDP-N-acetylmuramate dehydrogenase
T1 sequence (P61431 whole entry): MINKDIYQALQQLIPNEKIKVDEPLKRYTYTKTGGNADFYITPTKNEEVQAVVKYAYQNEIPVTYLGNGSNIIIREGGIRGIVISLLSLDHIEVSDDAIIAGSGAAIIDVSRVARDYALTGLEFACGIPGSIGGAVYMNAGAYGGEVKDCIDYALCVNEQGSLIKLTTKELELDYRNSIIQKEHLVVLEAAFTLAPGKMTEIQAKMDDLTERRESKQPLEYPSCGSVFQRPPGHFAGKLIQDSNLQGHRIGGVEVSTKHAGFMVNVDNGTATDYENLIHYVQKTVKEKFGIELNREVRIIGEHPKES

[7] = Minimum inhibitory activity in presence of 4% bovine serum albumin against Streptococcus pneumoniae GC1894 (PRSP); format: functional
Staphylococcus aureus [8] = assay: Minimum inhibitory activity against Staphylococcus aureus GC 4543 (MSSA); format: functional
[9] = Minimum inhibitory activity against MSCNS GC 646; format: functional; conditions: Staphylococcus
Staphylococcus aureus [10] = assay: Minimum inhibitory activity against Staphylococcus aureus GC 1131 (MRSA); format: functional
[11] = target: T2, UDP-N-acetylmuramoylalanine--D-glutamate ligase (Staphylococcus aureus, UniProt P0A091); assay: In vitro inhibitory activity against Staphylococcus aureus UDP-N-acetylmuramoyl-L-alanyl-D-glutamate synthetase
T2 sequence (P0A091 whole entry): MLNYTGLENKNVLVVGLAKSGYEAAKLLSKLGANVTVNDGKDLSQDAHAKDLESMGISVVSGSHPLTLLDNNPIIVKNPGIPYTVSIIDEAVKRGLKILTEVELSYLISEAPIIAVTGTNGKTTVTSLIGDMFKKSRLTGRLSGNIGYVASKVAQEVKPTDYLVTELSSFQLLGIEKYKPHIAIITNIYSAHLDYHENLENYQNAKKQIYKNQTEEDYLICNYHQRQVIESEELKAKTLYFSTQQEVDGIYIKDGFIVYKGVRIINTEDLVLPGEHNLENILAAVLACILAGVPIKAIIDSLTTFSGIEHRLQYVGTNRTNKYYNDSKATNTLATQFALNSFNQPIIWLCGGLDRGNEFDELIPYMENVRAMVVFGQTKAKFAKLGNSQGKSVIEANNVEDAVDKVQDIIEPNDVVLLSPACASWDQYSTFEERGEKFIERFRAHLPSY

Enterococcus faecalis [12] = assay: Minimum inhibitory activity against Enterococcus faecalis GC 4555 (ATCC); format: functional
[13] = target: T3, UDP-N-acetylmuramate--L-alanine ligase (Staphylococcus aureus, UniProt O31211); assay: In vitro inhibitory activity against Staphylococcus aureus UDP-N-acetylmuramoyl-L-alanine synthetase
T3 sequence (O31211 whole entry): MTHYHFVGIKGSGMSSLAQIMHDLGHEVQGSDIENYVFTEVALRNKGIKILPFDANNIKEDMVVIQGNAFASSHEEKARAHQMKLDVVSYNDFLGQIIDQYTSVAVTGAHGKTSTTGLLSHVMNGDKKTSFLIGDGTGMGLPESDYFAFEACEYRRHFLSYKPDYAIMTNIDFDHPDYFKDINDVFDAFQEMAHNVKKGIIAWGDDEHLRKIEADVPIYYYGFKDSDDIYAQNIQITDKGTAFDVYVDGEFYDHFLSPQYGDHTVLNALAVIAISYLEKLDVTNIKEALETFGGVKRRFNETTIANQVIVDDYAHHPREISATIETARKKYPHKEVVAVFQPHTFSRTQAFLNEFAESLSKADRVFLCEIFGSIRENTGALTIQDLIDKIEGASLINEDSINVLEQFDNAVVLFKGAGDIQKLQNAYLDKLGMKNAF

Enterococcus faecalis [14] = assay: Minimum inhibitory activity against Enterococcus faecalis GC 2242 (VRE); format: functional
Bacteria = assay: Minimum inhibitory activity against gram negative bacteria; format: functional

Row | SMILES | logP [1] | MIC (Escherichia coli [2]) | MIC [3] | MIC (Staphylococcus aureus [4]) | MIC (Escherichia coli [5]) | IC50 [6] | MIC [7] | MIC (Staphylococcus aureus [8]) | MIC [9] | MIC (Staphylococcus aureus [10]) | IC50 [11] | MIC (Enterococcus faecalis [12]) | IC50 [13] | MIC (Enterococcus faecalis [14]) | MIC (Bacteria)
1 | NC(=O)c1cccc(-n2nc3c(c2O)SCC3)c1 | 1.41 | > 128 µg/mL | 8 µg/mL (≈ 30.6 µM) | 128 µg/mL (≈ 490 µM) | 128 µg/mL (≈ 490 µM) | > 95.7 µM | > 128 µg/mL | 64 µg/mL (≈ 245 µM) | > 128 µg/mL | 128 µg/mL (≈ 490 µM) | 47.8 µM | 64 µg/mL (≈ 245 µM) | > 95.7 µM | 32 µg/mL (≈ 122 µM) | 
2 | N#Cc1ccc(-n2nc3c(c2O)SCC3)cc1 | 2.53 | > 128 µg/mL | 4 µg/mL (≈ 16.4 µM) | 8 µg/mL (≈ 32.9 µM) | 64 µg/mL (≈ 263 µM) | > 103 µM | > 128 µg/mL | 16 µg/mL (≈ 65.8 µM) | 4 µg/mL (≈ 16.4 µM) | 32 µg/mL (≈ 132 µM) | 49.3 µM | 8 µg/mL (≈ 32.9 µM) | > 103 µM | 8 µg/mL (≈ 32.9 µM) | 
3 | [O-][S+]1CCc2nn(-c3ccc(Cl)c(Cl)c3)c(O)c21 (stereo unspecified) | 2.01 |  |  |  |  | 66 µM |  |  |  |  |  |  |  |  | > 128 µg/mL

Reference: ChEMBL document CHEMBL1136141, “2-Phenyl-5,6-dihydro-2H-thieno[3,2-c]pyrazol-3-ol derivatives as new inhibitors of bacterial cell wall biosynthesis” (Bioorg Med Chem Lett, 2003)
